Source: PubChem BioAssay (NCI)
“And” between values parts separate entries of the source, which are not always exact repeats. Equal entries are not always repeated.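 Each compound was tested at five concentrations against cells in 96-well plates for 48 hours. At the GI50, growth is halved. TGI marks complete inhibition of growth.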

Assays:
Assay in all cases: inhibition of tumour cell growth, NCI panel, 48 h
NCI-H226 lung = system: NCI-H226 lung
HL-60(TB) leukemia = system: HL-60(TB) leukemia
HCC-2998 colon = system: HCC-2998 colon
KM12 colon = system: KM12 colon
RXF 393 renal = system: RXF 393 renal
786-0 renal = system: 786-0 renal
MALME-3M melanoma = system: MALME-3M melanoma
CCRF-CEM leukemia = system: CCRF-CEM leukemia
U251 CNS = system: U251 CNS
SF-539 CNS = system: SF-539 CNS

| Compound | GI50 (NCI-H226 lung) | TGI (NCI-H226 lung) | GI50 (HL-60(TB) leukemia) | TGI (HL-60(TB) leukemia) | GI50 (HCC-2998 colon) [µM] | TGI (HCC-2998 colon) | GI50 (KM12 colon) | TGI (KM12 colon) | GI50 (RXF 393 renal) [µM] | TGI (RXF 393 renal) | GI50 (786-0 renal) [µM] | TGI (786-0 renal) | GI50 (MALME-3M melanoma) | TGI (MALME-3M melanoma) | GI50 (CCRF-CEM leukemia) | TGI (CCRF-CEM leukemia) | GI50 (U251 CNS) [µM] | TGI (U251 CNS) | GI50 (SF-539 CNS) | TGI (SF-539 CNS) |
| --- | --- | --- | --- | --- | --- | --- | --- | --- | --- | --- | --- | --- | --- | --- | --- | --- | --- | --- | --- | --- |
| Nc1nccc(C#Cc2cncnc2Nc2ccc(OCc3cccc(F)c3)c(Cl)c2)n1 | 4.14 µM | 7.83 µM | 5.7 µM | 14.5 µM | 4.1 | 7.55 µM | 4.52 µM | 8.2 µM | 4.02 | 8.9 µM | 7.69 | > 20.1 µM | 5.26 µM | 13.1 µM | 1.33 µM | > 19.2 µM | 3.82 | 7.42 µM | 5.58 µM | 14.1 µM |
| Cc1cc(N(CCC#N)CCC#N)ccc1N=Nc1ccc([N+](=O)[O-])cc1 |  | > 100 µM |  | > 100 µM |  | > 100 µM |  | > 100 µM |  | > 100 µM |  | > 100 µM |  | > 100 µM |  | > 100 µM |  | 36.1 µM |  | > 100 µM |
| COC(=O)C12C3C=CC(O3)C1C1C=CC2O1 (stereo unspecified) |  | > 100 µM |  | > 100 µM |  | > 100 µM |  | > 100 µM |  | > 100 µM |  | > 100 µM |  | > 100 µM |  | > 100 µM |  | > 100 µM |  | > 100 µM |
| COc1ccc(Nc2nc3c(N)cc(C(F)(F)F)cc3nc2-c2ccccc2)cc1 |  | > 100 µM |  | > 100 µM |  | > 100 µM |  | > 100 µM |  | 68.2 µM |  | > 100 µM |  | > 100 µM |  | > 100 µM |  | > 100 µM |  | > 100 µM |
| CCN1N=CSC12C(=O)N(c1ccccc1)C(=O)N2c1ccccc1 (stereo unspecified) |  | > 100 µM |  | > 100 µM |  | > 100 µM |  | > 100 µM |  | > 100 µM |  | > 100 µM |  | > 100 µM |  | > 100 µM |  | > 100 µM |  | > 100 µM |
| C/C=C(\C)C(=O)O[C@@H]1C=CC(=O)O[C@H]1COC(=O)[C@H](C)O | 14.7 µM | 44.7 µM | 4.41 µM | 21.3 µM | 14.8 | 28.7 µM | 13.3 µM | 27 µM | 6.51 | 30 µM | 9.2 | 21.2 µM | 12.1 µM | 25.9 µM | 0.733 µM | 17 µM | 11.5 | 25 µM | 16.5 µM | 59.4 µM |
| C=C1C(=O)C23C(O)C1CCC2C12CO[C@]3(O)[C@@H](O)C1C(C)(C)CCC2O (stereo partly specified) |  | 34.9 µM |  | > 100 µM |  | 30.4 µM |  | 31.7 µM |  | 20.6 µM |  | 25.1 µM |  | 17.5 µM |  | 5.98 µM |  | 32.2 µM |  | 28.2 µM |
| C#CCSc1nnnn1-c1ccc(Br)c(C)c1 | 26.4 µM | > 100 µM | 27.3 µM | 87 µM | 33.8 | > 100 µM | 35 µM | > 100 µM | 27.3 | > 100 µM | 54.9 | > 100 µM | 27.2 µM | 71.8 µM | 29.5 µM | > 100 µM | 12 | > 100 µM | 18.1 µM | 36.5 µM |
| C[CH2][Sn]([CH2]C)([O]C(=O)c1cc(OC)c(OC)c(OC)c1)[O][Sn]([CH2]C)([CH2]C)[O]C(=O)c1cc(OC)c(OC)c(OC)c1 | 27.3 µM | 57.9 µM | 35.1 µM | > 100 µM | > 76.1 | > 100 µM | > 100 µM | > 100 µM | 12.4 | 27.9 µM | 27.4 | > 59.8 µM | 17.3 µM | 32.2 µM | 7.78 µM | 33.1 µM | 18.2 | 33.1 µM | 27.7 µM | 74.9 µM |
| C/C(=N\NC(=S)Nc1ccccc1)c1ccccn1 | 0.217 µM | 2.13 µM | < 0.0114 µM | 0.0781 µM | 0.924 | 3.12 µM | 0.143 µM | 2.29 µM | 0.588 | 2.64 µM | 0.277 | 1.99 µM | 0.121 µM | 5.39 µM | < 0.01 µM | > 100 µM | 0.0366 | 2.39 µM | 0.581 µM | 7.24 µM |
| Cn1cccc1C1CC(=O)N(CCC[Se]C#N)C1=O (stereo unspecified) | 1.62 µM | 4.3 µM | 2.11 µM | 4.68 µM | 2.96 | 10.1 µM | 2.11 µM | 5.36 µM | 1.74 | 3.43 µM | 1.95 | 3.44 µM | 1.89 µM | 4.12 µM | 2.22 µM | 7.66 µM | 1.72 | 3.48 µM | 1.96 µM | 3.66 µM |
| Cn1cc(-c2nonc2-c2cn(C)c3ccc(Br)cc23)c2ccccc21 | 4.61 µM | > 100 µM | 2.95 µM | > 100 µM | 5.45 | > 100 µM | 2.63 µM | > 100 µM | 1.99 | 5.46 µM | 6.18 | > 100 µM | 4.86 µM | > 100 µM | 3.37 µM | > 100 µM | 3.93 | > 100 µM | 2.19 µM | 6.13 µM |
| COC(=O)Oc1nn(C(=O)OC)c(=O)c2ccccc12 (tested in a mixture with another compound) |  | > 100 µM |  | > 100 µM |  | > 100 µM |  | > 100 µM |  | > 100 µM |  | > 100 µM |  | > 100 µM |  | > 100 µM |  | > 100 µM |  | > 100 µM |
| Fc1cccc(C=NC23CC4CC(CC(C4)C2)C3)c1 |  | > 100 µM |  | > 100 µM |  | > 100 µM |  | > 100 µM |  | > 100 µM |  | > 100 µM |  | > 100 µM |  | > 100 µM |  | > 100 µM |  | > 100 µM |
| CN(C)CC1CCCC(CN(C)C)C1=O (stereo unspecified) | 18.6 µM and > 46.5 µM | 35.6 µM and > 69.2 µM | 0.612 µM and 2.85 µM | 2.03 µM and 7.45 µM |  | 29.5 µM and 36 µM | 6.05 µM and 17.2 µM | 16.9 µM and 33.3 µM |  | 3.29 µM and 3.25 µM |  | 5.94 µM and 4.61 µM | 0.653 µM and 2.61 µM | 1.61 µM and 6.54 µM | 0.155 µM and 0.0588 µM | 0.559 µM and 0.21 µM |  | 23 µM and 34.6 µM | 11.3 µM and 1.75 µM | 21.9 µM and 5.78 µM |
